According to patent publication US10381110B2, “Molecules” (University of Dundee, priority 2010, dated 2019):
pKi: −log10 of the molar value. Structures can show the parent of a compound that is named as a salt. Where two headings read alike, the source gives them in different places.

Key:
dopamine D1 = dopamine D1 (Homo sapiens, UniProt P21728); assay: Primary radioligand binding assay (NIMH PDSP); conditions: primary radiobinding assay, [3H]SCH233930; note: test concentration or dose not given here
α1A (Alpha1A) = molecular target: T1, α1A (Alpha1A) (Homo sapiens, UniProt P35348); assay: Secondary radioligand binding assay (Ki)
T1 sequence (P35348 1-466): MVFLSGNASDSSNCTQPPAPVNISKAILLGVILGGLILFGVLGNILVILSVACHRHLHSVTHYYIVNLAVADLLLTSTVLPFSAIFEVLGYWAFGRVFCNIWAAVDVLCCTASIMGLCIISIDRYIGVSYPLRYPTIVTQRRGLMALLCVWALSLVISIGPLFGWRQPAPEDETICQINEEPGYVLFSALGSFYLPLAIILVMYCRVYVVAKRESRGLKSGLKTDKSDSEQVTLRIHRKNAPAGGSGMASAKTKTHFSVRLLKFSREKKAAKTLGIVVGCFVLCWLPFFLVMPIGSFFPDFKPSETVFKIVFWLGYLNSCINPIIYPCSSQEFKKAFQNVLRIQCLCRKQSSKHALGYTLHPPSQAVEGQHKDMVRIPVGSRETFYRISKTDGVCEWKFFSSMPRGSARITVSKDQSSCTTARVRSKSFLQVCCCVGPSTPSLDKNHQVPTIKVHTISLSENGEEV
Procedure: (§1) Radioligand is diluted to five times the assay concentration (see Table 18) in Standard Binding Buffer. Typically, the assay concentration of radioligand is a value between one half the KD and the KD of a particular radioligand at its target. 50 μl aliquots of radioligand are dispensed into the wells of a 96-well plate containing 100 μl of Standard Binding Buffer. Then, duplicate 50 μl aliquots of the test and reference compound dilutions are added.
(§2) The 250 μl reactions are incubated at room temperature and shielded from light (to prevent photolysis of light-sensitive ligands) for 1.5 hours, then harvested by rapid filtration onto Whatman GF/B glass fiber filters pre-soaked with 0.3% polyethyleneimine using a 96-well Brandel harverster. Four rapid 500 μl washes are performed with chilled Standard Binding Buffer to reduce non-specific binding. Filters are placed in 6 ml scintillation tubes and allowed to dry overnight. The next day, 4 ml of EcoScint scintillation cocktail (National Diagnostics) are added to each tube. The tubes are capped, labeled, and counted by liquid scintillation counting. […] The filter mats are dried, then scintillant is melted onto the filters and the radioactivity retained on the filters is counted in a Microbeta scintillation counter.
(§3) Raw data (dpm) representing total radioligand binding (i.e. specific+non-specific binding) are plotted as a function of the logarithm of the molar concentration of the competitor (i.e. test or reference compound).
Adrenergic Receptors: α1A, α1B, α2A, α2B, α2C, β1, β2, β3
(§4) Membrane Fraction Source: Transiently or stably transfected cell lines (e.g. HEK293, COS, CHO, NIH3T3)
The method is carried out in the manner described for the serotonin receptor assay above, except where described below. Eleven dilutions (5× assay concentration) of the test and reference (see Table 20) compounds are prepared in the appropriate buffer by serial dilution, as previously described. Radioligand is diluted to five times the assay concentration (see Table 21) in the appropriate buffer.
The 250 μl reactions are incubated at room temperature and shielded from light (to prevent photolysis of light-sensitive ligands) for 1 hour (for α1 receptors, 40 min for α2 receptors, and 1.5 hours for β receptors), then harvested by rapid filtration onto Whatman GF/B glass fiber filters pre-soaked with 0.3% polyethyleneimine using a 96-well Brandel harverster. Four rapid 500-μl washes are performed with chilled distilled water (for α1 and β receptors) or 0.1% polyethyleneimine (for α2 receptors) to reduce non-specific binding. Filters are placed in 6 ml scintillation tubes and allowed to dry overnight and the samples are treated to obtain data as described above.

5HT1a [1] = molecular target: T2, 5HT1a (Homo sapiens, UniProt P08908); assay: Secondary radioligand binding assay (Ki); conditions: for α1/D2: Table 24: Selectivity of 5HT1A over average of α1 Receptors; for α1A/D2 / α1B/D2 / α1D/D2: Table 24: Selectivity of 5HT1A over α1 Receptors, ratio of Ki
T2 sequence (P08908 1-422): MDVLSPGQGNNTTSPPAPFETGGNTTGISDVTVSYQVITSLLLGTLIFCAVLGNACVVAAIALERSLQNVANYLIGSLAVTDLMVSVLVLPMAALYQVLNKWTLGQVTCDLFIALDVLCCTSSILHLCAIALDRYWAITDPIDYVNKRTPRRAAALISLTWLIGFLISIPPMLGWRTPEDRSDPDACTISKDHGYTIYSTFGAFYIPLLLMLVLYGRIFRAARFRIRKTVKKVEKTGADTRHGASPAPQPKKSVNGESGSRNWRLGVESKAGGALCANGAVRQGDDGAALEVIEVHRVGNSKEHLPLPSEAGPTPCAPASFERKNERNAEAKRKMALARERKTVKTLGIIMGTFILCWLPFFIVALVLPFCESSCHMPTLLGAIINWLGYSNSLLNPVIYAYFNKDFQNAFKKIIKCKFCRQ
Procedure: (§5) Assay Buffer: Standard Binding Buffer (50 mM Tris-HCl, 10 mM MgCl2, 1 mM EDTA, pH 7.4)
(§6) Membrane Fraction Source: Transiently or stably transfected cell lines (e.g., HEK293, COS, CHO, NIH3T3)
as §1, §2, §3

Alpha1A = molecular target: T3, Alpha1A (Homo sapiens, UniProt P35348); assay: Primary radioligand binding assay (NIMH PDSP); conditions: primary radiobinding assay, [3H]Prazosin; note: test concentration or dose not given here
T3 sequence (P35348 1-466): T1 sequence (P35348 1-466)

dopamine D2 [2] = molecular target: T4, dopamine D2 (Homo sapiens, UniProt P14416); assay: Secondary radioligand binding assay (Ki); conditions: for α1/D2: Table 22: Selectivity of Dopamine D2 over average of α1 Receptors; for α1A/D2 / α1B/D2 / α1D/D2: Table 22: Selectivity of Dopamine D2 over α1 Receptors, ratio of Ki
Procedure: as §1, §2, §3
(§7) Assay Buffers: Dopamine Binding Buffer (50 mM NaCl, 50 mM HEPES-HCl, 5 mM MgCl2, 0.5 mM EDTA, pH 7.4)
as §4
(§8) The method is carried out in the manner described for the serotonin receptor assay above. Eleven dilutions (5× assay concentration) of the test and reference (see Table 19) compounds are prepared in Dopamine Binding Buffer by serial dilution, as previously described. Radioligand is diluted to five times the assay concentration (see Table 20) in Dopamine Binding Buffer.

5-HT2B = 5-HT2B (Homo sapiens, UniProt P41595); assay: Secondary radioligand binding assay (Ki)
Procedure: as §5, §6, §1, §2, §3

dopamine D5 = dopamine D5 (Homo sapiens, UniProt P21918); assay: Primary radioligand binding assay (NIMH PDSP); conditions: primary radiobinding assay, [3H]SCH233930; note: test concentration or dose not given here
5HT1a [3] = molecular target: T2, 5HT1a; assay: Primary radioligand binding assay (NIMH PDSP); conditions: primary radiobinding assay, [3H]8-OH-DPAT; for 5ht1a (% inh): test concentration or dose not given here
dopamine D3 [4] = molecular target: T5, dopamine D3 (Homo sapiens, UniProt P35462); assay: Primary radioligand binding assay (NIMH PDSP); conditions: primary radiobinding assay, N-methylspiperone; note: test concentration or dose not given here
5-HT5A = 5-HT5A (Homo sapiens, UniProt P47898); assay: Secondary radioligand binding assay (Ki)
Procedure: as §5, §6, §1, §2, §3

dopamine D2 [5] = molecular target: T4, dopamine D2; assay: Primary radioligand binding assay (NIMH PDSP); conditions: primary radiobinding assay, [3H]N-methylspiperone; for 5ht1a (% inh): test concentration or dose not given here
dopamine D3 [6] = molecular target: T5, dopamine D3; assay: Secondary radioligand binding assay (Ki); conditions: for α1/D2: Table 23: Selectivity of Dopamine D3 over average of α1 Receptors; for α1A/D2 / α1B/D2 / α1D/D2: Table 23: Selectivity of Dopamine D3 over α1 Receptors, ratio of Ki
Procedure: as §1, §2, §3, §7, §4, §8

Alpha1B = molecular target: T6, Alpha1B (Homo sapiens, UniProt P35368); assay: Primary radioligand binding assay (NIMH PDSP); conditions: primary radiobinding assay, [3H]Prazosin; note: test concentration or dose not given here
T6 sequence (P35368 1-520): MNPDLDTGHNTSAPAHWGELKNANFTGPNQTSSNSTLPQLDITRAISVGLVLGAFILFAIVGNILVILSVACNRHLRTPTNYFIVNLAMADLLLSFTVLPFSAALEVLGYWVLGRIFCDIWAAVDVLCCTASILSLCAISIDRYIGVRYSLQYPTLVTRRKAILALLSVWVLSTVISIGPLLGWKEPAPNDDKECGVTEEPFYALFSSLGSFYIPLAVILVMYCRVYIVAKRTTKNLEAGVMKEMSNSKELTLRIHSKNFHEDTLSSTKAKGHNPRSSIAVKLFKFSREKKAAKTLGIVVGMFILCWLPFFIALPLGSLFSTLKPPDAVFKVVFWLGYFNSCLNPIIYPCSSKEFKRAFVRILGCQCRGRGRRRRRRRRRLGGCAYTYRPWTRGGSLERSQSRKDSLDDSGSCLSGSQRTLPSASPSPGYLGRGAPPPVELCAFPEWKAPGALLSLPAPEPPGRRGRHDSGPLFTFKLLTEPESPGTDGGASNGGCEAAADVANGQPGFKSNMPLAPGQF

[7] = read-out: Experimental Receptor Binding Data-Ki ALPHA_1A, Table 25, GPCR panel
[8] = read-out: Experimental Receptor Binding Data-Ki D2, Table 25, GPCR panel
[9] = read-out: Experimental Receptor Binding Data-Ki D3, Table 25, GPCR panel

Chain of dopamine D1 (P21728 whole entry): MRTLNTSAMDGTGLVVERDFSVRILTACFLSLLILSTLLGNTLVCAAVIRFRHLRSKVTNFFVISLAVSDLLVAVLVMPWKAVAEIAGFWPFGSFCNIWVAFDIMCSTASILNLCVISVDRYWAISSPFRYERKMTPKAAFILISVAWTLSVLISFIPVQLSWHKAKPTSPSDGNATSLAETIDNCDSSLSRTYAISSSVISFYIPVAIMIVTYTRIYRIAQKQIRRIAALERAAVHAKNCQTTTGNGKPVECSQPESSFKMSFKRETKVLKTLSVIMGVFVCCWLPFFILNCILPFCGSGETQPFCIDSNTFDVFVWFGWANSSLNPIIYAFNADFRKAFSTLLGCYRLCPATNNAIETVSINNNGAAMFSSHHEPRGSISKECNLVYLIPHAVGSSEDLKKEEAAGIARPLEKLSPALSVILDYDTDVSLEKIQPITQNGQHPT
Chain of 5-HT5A (P47898 whole entry, species assumed): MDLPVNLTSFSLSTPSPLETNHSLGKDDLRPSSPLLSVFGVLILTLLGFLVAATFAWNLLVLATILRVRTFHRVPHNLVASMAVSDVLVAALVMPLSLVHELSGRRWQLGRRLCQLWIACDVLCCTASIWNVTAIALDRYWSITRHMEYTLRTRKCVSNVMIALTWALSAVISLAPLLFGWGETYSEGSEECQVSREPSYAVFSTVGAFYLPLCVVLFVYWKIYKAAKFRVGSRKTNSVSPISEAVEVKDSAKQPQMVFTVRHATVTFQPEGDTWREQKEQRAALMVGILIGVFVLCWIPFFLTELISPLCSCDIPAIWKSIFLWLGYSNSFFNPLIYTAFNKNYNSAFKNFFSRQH
Chain of 5-HT2B (P41595 whole entry, species assumed): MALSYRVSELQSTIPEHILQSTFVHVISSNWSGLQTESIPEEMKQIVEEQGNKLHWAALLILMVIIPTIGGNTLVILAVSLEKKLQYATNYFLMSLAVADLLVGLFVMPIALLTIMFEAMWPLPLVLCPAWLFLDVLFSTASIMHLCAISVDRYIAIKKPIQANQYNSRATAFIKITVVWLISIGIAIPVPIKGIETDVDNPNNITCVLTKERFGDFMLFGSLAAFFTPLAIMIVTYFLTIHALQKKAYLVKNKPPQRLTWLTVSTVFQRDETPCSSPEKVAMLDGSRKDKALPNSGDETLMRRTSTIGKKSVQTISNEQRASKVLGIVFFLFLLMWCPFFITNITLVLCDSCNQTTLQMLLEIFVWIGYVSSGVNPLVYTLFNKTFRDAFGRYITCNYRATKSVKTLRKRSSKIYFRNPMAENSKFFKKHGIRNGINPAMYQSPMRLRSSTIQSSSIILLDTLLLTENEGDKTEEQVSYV
Chain of dopamine D5 (P21918 whole entry): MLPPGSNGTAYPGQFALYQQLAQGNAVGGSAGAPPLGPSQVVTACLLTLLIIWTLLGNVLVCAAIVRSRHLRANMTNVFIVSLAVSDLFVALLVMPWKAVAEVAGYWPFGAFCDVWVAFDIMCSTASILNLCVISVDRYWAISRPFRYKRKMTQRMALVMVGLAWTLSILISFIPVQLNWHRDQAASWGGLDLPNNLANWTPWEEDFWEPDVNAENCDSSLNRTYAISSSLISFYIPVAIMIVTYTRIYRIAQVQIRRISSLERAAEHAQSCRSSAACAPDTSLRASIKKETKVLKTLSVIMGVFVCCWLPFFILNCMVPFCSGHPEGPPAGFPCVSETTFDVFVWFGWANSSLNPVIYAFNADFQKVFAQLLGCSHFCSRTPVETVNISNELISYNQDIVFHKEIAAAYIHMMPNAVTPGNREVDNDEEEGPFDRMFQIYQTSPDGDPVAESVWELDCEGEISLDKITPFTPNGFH
T4 sequence (P14416 whole entry, species assumed): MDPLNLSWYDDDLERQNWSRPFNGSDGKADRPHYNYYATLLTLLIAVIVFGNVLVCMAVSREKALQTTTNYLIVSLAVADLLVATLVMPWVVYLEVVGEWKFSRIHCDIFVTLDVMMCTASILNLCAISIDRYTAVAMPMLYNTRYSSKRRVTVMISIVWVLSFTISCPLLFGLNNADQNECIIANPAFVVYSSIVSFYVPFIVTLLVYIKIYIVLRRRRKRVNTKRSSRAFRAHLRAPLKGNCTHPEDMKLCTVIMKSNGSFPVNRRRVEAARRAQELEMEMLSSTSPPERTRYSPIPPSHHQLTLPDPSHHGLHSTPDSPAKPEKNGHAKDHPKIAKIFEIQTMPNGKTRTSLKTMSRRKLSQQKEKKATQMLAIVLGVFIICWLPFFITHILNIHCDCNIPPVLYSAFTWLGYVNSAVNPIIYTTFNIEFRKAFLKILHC
T5 sequence (P35462 whole entry): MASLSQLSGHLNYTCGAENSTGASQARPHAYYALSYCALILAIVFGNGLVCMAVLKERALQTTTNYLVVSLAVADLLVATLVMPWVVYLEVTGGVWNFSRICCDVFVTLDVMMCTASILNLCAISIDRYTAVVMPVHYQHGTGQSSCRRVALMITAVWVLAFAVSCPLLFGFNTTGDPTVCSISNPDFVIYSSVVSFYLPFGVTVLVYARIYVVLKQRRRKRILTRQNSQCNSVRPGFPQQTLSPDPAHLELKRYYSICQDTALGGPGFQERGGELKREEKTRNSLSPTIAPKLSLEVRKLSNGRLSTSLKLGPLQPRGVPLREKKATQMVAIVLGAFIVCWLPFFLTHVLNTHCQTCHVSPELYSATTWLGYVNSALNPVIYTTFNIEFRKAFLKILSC

Row | SMILES | D1 (% inh) (dopamine D1) | pKi (α1A (Alpha1A); [7]) | pKi (α1A (Alpha1A); read-out: Kiα1A) | α1/D2 (5HT1a [1]) | α1A/D2 (5HT1a [1]) | α1B/D2 (5HT1a [1]) | α1D/D2 (5HT1a [1]) | Alpha1A (% inh) (Alpha1A) | α1/D2 (dopamine D2 [2]) | α1A/D2 (dopamine D2 [2]) | α1B/D2 (dopamine D2 [2]) | α1D/D2 (dopamine D2 [2]) | D5 (% inh) (dopamine D5) | 5ht1a (% inh) (5HT1a [3]) | D3 (% inh) (dopamine D3 [4]) | D2 (% inh) (dopamine D2 [5]) | α1A/D2 (dopamine D3 [6]) | α1B/D2 (dopamine D3 [6]) | α1D/D2 (dopamine D3 [6]) | Alpha1B (% inh) (Alpha1B) | also measured
1 | COc1ccc2c(c1)C(=O)N(CCCN1CCN(c3ccccc3OC)CC1)C2 [GFR-VII-273] | 49.5 % inh | 7.19 | 7.19 | 24.0 | 10.0 | 49.7 | 12.5 | 102.2 % inh | 0.12 | 0.080 | 0.398 | 0.100 | 31.8 % inh | 92.5 % inh | 94.1 % inh | 85 % inh | 0.4 | 1.98 | 0.5 | 102.5 % inh | pKi (5HT1a [1]): 8.19; pKi (dopamine D2 [2]): 6.09; pKi (5-HT2B): 7.72; pKi (5-HT5A): 5.54; pKi (dopamine D3 [6]): 6.79; α1/D2 (dopamine D3 [6]): 1.0
2 | COc1ccc2c(c1)C(=O)N(CCN1CCN(c3ccccc3OC)CC1)C2 [GFR-VII-280-HCl] | 30 % inh | – | – | 5.9 | 3.5 | 12.1 | 2.1 | 101.5 % inh | 0.008 | 0.005 | 0.017 | 0.003 | 6 % inh | 92 % inh | 95.7 % inh | 69.8 % inh | 0.05 | 0.16 | 0.03 | 101 % inh | pKi (α1A (Alpha1A)): 8.07; pKi (5HT1a [1]): 8.62; pKi (dopamine D2 [2]): 5.76; pKi (5-HT2B): 6.62; pKi (5-HT5A): 5.60; pKi (dopamine D3 [6]): 6.74; α1/D2 (dopamine D3 [6]): 0.1
3 | COc1ccc2c(c1)C(=O)N(CCN1CCN(c3ccccc3OC)CC1)C2 [GFR-VII-280] | 29.3 % inh | 7.80 | 7.80 | 6.4 | 4.5 | 11.1 | 3.5 | 101.2 % inh | 0.014 | 0.010 | 0.023 | 0.008 | 21.8 % inh | 92.4 % inh | 98.1 % inh | 66.6 % inh | 0.08 | 0.19 | 0.06 | 104.4 % inh | pKi (5HT1a [1]; read-out: Experimental Receptor Binding Data-Ki 5HT1A, Table 25, GPCR panel): 8.46; pKi (5HT1a [1]; read-out: Ki 5HT1A): 8.46; pKi (dopamine D2 [2]; [8]): 5.78; pKi (dopamine D2 [2]; read-out: KiD2): 5.78; pKi (5-HT2B; read-out: Experimental Receptor Binding Data-Ki 5HT2B, Table 25, GPCR panel): 6.80; pKi (5-HT5A; read-out: Experimental Receptor Binding Data-Ki 5HT5A, Table 25, GPCR panel): 5.67; pKi (dopamine D3 [6]; [9]): 6.68; pKi (dopamine D3 [6]; read-out: KiD3): 6.68
4 | COc1cc2c(cc1OC)C(=O)N(CCCCN1CCN(c3ccccc3OC)CC1)C2 [GFR-VII-285] | 91.3 % inh | 9.05 | 9.05 | 0.4 | 0.04 | 0.8 | 0.2 | 102.7 % inh | 0.053 | 0.006 | 0.124 | 0.028 | 75.1 % inh | 93.3 % inh | 100.5 % inh | 96.2 % inh | 0.08 | 1.8 | 0.4 | 101.5 % inh | pKi (5HT1a [1]): 7.64; pKi (dopamine D2 [2]; [8]): 6.81; pKi (dopamine D2 [2]; read-out: KiD2): 6.81; pKi (5-HT2B): 7.39; pKi (5-HT5A): 5.61; α1/D2 (dopamine D3 [6]): 0.75; pKi (dopamine D3 [6]; [9]): 7.96; pKi (dopamine D3 [6]; read-out: KiD3): 7.96
